Test results reported in patent US5962471A, “Substituted 6- and 7-aminotetrahydroisoquinolinecarboxylic acids” (Hoechst Aktiengesellschaft, priority 1997, dated 1999).

Experiments:
[1] = biological target: T1, human stromelysin (MMP-3) (Homo sapiens, UniProt P08254); assay: inhibition of the catalytic domain of human stromelysin (MMP-3), fluorogenic substrate; assay type: biochemical
T1 construct: catalytic domains of human stromelysin and of neutrophil collagenase; made in house
Method: (§1) Preparation and determination of the enzymatic activity of the catalytic domains of human stromelysin and of neutrophil collagenase.
(§2) The two enzymes--stromelysin (MMP-3) and neutrophil collagenase (MMP-8)--were prepared according to Ye et al., Biochemistry, vol. […] To measure the enzyme activity or the enzyme inhibitor action, 70 μl of buffer solution and 10 μl of enzyme solution are incubated for 15 minutes with 10 μl of a 10% strength (v/v) aqueous dimethyl sulfoxide solution, which optionally contains the enzyme inhibitor.
(§3) The buffer solution contains 0.05% Brij (Sigma, Deisenhofen, Germany) and also 0.1 mol/l tris/HCl, 0.1 mol/l NaCl, 0.01 mol/l CaCl2 and 0.1 mol/l piperazine-N,N'-bis[2-ethanesulfonic acid] (pH=6.5). The enzyme solution contains 5 μg/ml of one of the enzyme domains prepared according to Ye et al. The substrate solution contains 1 mmol/l of the fluorogen ic substrate (7-methoxycoumarin4-yl)acetyl-Pro-Leu-Gly-Leu-3-(2',4'-dinitrophenyl)-L-2,3-diaminopropionyl-Ala-Arg-NH2 (Bachem, Heidelberg, Germany).
(§4) The enzyme activity is shown as the extinction increase/minute.

[2] = tested on: neutrophil collagenase (MMP-8); assay: inhibition of the catalytic domain of neutrophil collagenase (MMP-8), fluorogenic substrate; assay type: biochemical, human; settings: fluorescence 328 nm (ex)/393 nm (em), pH=6.5, 15 min preincubation
Method: as §1, §2, §3, §4

T1 sequence (P08254 100-273 limits assumed): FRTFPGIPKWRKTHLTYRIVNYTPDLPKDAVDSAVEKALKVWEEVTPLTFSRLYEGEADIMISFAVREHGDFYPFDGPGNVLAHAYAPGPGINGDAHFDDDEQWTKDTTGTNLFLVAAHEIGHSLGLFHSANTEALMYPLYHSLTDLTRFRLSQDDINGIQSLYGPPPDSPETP

| Structure (SMILES) | IC50 [1] [nM] | IC50 [2] [nM] |
| --- | --- | --- |
| COc1ccc(S(=O)(=O)N2Cc3cc(NC(=O)[C@H](C)N)ccc3C[C@@H]2C(=O)NO)cc1 [Example 30] | 30 | – |
| COc1ccc(S(=O)(=O)N2Cc3cc(NC(=O)OC(C)(C)C)ccc3C[C@@H]2C(=O)NO)cc1 [Example 11] | 20 | 3 |
| O=C(O)[C@H]1Cc2ccc([N+](=O)[O-])cc2CN1S(=O)(=O)c1ccc(-c2ccc(F)cc2)cc1 [Example 17] | – | 40 |
| CC(N)C(=O)Nc1ccc2c(c1)CN(S(=O)(=O)c1ccc(-c3ccc(Cl)cc3)cc1)[C@@H](C(=O)O)C2 (some centres unmarked) [Example 25] | 200 | 10 |
| O=C(O)[C@H]1Cc2cc([N+](=O)[O-])ccc2CN1S(=O)(=O)c1ccc(-c2ccc(F)cc2)cc1 [Example 18] | – | 20 |
| O=C(O)[C@H]1Cc2cc([N+](=O)[O-])ccc2CN1S(=O)(=O)c1ccc(-c2ccc(Cl)cc2)cc1 [Example 16] | – | 20 |
| C[C@H](NC(=O)OCc1ccccc1)C(=O)Nc1ccc2c(c1)CN(S(=O)(=O)c1ccc(-c3ccc(Cl)cc3)cc1)[C@@H](C(=O)O)C2 [Example 24] | 300 | 60 |
| Nc1ccc2c(c1)CN(S(=O)(=O)c1ccc(-c3ccc(F)cc3)cc1)[C@@H](C(=O)NO)C2 [Example 28] | 20 | 2 |
| O=C(O)[C@H]1Cc2ccc([N+](=O)[O-])cc2CN1S(=O)(=O)c1ccc(-c2ccc(Cl)cc2)cc1 [Example 15] | – | 30 |
| COc1ccc(S(=O)(=O)N2Cc3cc(NC(=O)[C@H](CC(=O)OC(C)(C)C)NC(=O)OCc4ccccc4)ccc3C[C@@H]2C(=O)NO)cc1 [Example 32] | 400 | 10 |
| CC(C)(C)OC(=O)Nc1ccc2c(c1)CN(S(=O)(=O)c1ccc(-c3ccc(F)cc3)cc1)[C@@H](C(=O)NO)C2 [Example 27] | 100 | 10 |
| Nc1ccc2c(c1)CN(S(=O)(=O)c1ccc(-c3ccc(F)cc3)cc1)[C@@H](C(=O)O)C2 [Example 22] | 300 | 8 |
| COc1ccc(S(=O)(=O)N2Cc3cc(NC(=O)CCC(=O)O)ccc3C[C@@H]2C(=O)NO)cc1 [Example 31] | 20 | 4 |
| COc1ccc(S(=O)(=O)N2Cc3cc(N)ccc3C[C@@H]2C(=O)NO)cc1 [Example 10, 2-(4-Methoxybenzenesulfonyl)-7-amino-1,2,3,4-tetrahydroisoquinoline-(R)-3-(N-hydroxy)carboxamide] | 10 | – |
| Nc1ccc2c(c1)C[C@H](C(=O)O)N(S(=O)(=O)c1ccc(-c3ccc(F)cc3)cc1)C2 [Example 21] | 200 | 8 |
| CC(C)(C)OC(=O)Nc1ccc2c(c1)CN(S(=O)(=O)c1ccc(-c3ccc(F)cc3)cc1)[C@@H](C(=O)O)C2 [Example 20] | 2000 | 100 |
